The target of data set [1] is T1, Solute carrier organic anion transporter family member 1B1 (Homo sapiens, UniProt Q9Y6L6).
T1 sequence (Q9Y6L6 whole entry): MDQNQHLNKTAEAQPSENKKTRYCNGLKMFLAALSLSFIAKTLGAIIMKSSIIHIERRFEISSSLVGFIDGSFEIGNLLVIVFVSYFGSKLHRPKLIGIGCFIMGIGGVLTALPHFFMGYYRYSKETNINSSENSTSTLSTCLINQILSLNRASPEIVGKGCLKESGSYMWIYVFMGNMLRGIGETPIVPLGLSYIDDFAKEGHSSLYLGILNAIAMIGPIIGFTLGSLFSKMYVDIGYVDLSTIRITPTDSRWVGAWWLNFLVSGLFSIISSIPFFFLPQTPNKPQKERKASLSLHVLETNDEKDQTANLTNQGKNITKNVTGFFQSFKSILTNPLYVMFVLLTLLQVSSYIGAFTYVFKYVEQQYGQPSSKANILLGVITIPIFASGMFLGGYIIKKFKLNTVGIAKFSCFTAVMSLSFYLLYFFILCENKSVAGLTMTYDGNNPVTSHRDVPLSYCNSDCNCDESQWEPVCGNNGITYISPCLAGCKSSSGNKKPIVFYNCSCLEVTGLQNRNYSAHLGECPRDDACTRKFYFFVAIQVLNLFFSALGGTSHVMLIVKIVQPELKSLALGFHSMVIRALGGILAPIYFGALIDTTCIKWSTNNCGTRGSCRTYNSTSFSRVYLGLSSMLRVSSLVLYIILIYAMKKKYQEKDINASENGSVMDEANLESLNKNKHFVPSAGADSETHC
To be noted: chinese hamster, cho, 10 µM.

Data set [2] addresses T2, Solute carrier organic anion transporter family member 1B3 (Homo sapiens, UniProt Q9NPD5).
T2 sequence (Q9NPD5 whole entry): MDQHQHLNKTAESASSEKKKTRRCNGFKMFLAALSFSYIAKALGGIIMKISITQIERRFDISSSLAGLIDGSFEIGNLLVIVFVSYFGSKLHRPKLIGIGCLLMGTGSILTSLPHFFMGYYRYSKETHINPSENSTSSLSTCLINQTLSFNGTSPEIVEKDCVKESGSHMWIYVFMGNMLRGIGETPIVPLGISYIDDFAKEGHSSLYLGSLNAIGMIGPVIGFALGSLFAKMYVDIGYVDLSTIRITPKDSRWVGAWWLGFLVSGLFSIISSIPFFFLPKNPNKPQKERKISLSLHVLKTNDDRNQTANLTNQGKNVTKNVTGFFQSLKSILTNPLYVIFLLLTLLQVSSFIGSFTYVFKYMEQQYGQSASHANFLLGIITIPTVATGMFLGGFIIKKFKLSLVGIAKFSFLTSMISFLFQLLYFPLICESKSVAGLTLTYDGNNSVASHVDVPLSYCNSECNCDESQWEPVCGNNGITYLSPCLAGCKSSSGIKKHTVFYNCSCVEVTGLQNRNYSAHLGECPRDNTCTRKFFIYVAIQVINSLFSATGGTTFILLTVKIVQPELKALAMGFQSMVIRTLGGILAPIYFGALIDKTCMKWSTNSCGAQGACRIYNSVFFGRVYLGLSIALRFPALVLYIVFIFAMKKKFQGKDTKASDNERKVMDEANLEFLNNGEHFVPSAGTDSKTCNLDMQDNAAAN
To be noted: chinese hamster, cho, 10 µM.

Among the data in ChEMBL document CHEMBL3039007, “Structure-based identification of OATP1B1/3 inhibitors” (Mol Pharmacol, 2013) are residual activity values, retold here.

On to `CN[C@@H]1[C@H](O[C@H]2[C@H](O[C@H]3[C@H](O)[C@@H](O)[C@H](NC(=N)N)[C@@H](O)[C@@H]3NC(=N)N)O[C@@H](C)[C@]2(O)CO)O[C@@H](CO)[C@H](O)[C@H]1O.CN[C@@H]1[C@H](O[C@H]2[C@H](O[C@H]3[C@H](O)[C@@H](O)[C@H](NC(=N)N)[C@@H](O)[C@@H]3NC(=N)N)O[C@@H](C)[C@]2(O)CO)O[C@@H](CO)[C@H](O)[C@H]1O.O=S(=O)(O)O.O=S(=O)(O)O.O=S(=O)(O)O` [DIHYDROSTREPTOMYCIN SULFATE], for which the values for the residual activity in data set [1] and in data set [2] were 78.79% and 99.04%, respectively.

As for `Cc1cccc2c3c(ccc12)C1=C(C(=O)C3=O)[C@@H](C)CO1` [DIHYDROTANSHINONE I], the residual activity is on record as 111.4% in data set [1] and 129.1% in data set [2].

`COc1ccc([C@@H]2Sc3ccccc3N(CCN(C)C)C(=O)[C@@H]2OC(C)=O)cc1.Cl` [DILTIAZEM HYDROCHLORIDE]: the residual activity in data set [1] came out at 26.71%; in data set [2], 80.81%.

For the molecule `CNC(=O)CSP(=S)(OC)OC` [DIMETHOATE], the residual activity in data set [1] came to 106.9%; in data set [2], 114.1%.

As to `CS(C)(=O)=O` [DIMETHYL SULFONE], the residual activity in data set [1] is 115.1%; in data set [2], 102.7%.

In the case of `Cc1c(C(N)=O)cc([N+](=O)[O-])cc1[N+](=O)[O-]` [DINITOLMIDE], the residual activity in data set [1] stood at 98.02%; in data set [2], 106.4%.

On to `COc1ccc(-c2cc(=O)c3c(O)cc(O[C@@H]4O[C@H](CO[C@@H]5O[C@@H](C)[C@H](O)[C@@H](O)[C@H]5O)[C@@H](O)[C@H](O)[C@H]4O)cc3o2)cc1O` [DIOSMIN], for which the figures for the residual activity in data set [1] and in data set [2] were 67.13% and 93.34%, respectively.

As to `COc1c(Cl)c(C)c2c(c1Cl)OC(=O)c1c(C)c(Cl)c(OC)c(Cl)c1O2` [DIPLOICIN METHYL ETHER], the residual activity is 97.17% in data set [1] and 103.5% in data set [2].

Turning to `CC(=O)Oc1ccccc1C(=O)Oc1ccccc1C(=O)O` [DIPLOSALSALATE], the residual activity in data set [1] turned out to be 91.69%; in data set [2], 93.37%.

Turning to `CC[C@H](C)[C@H](N)C(=O)N1CCC[C@H]1C(=O)N[C@H](C(=O)O)[C@@H](C)CC` [DIPROTIN A], the results for the residual activity in data set [1] and in data set [2] were 108.3% and 116.8%, respectively.

For `CC(=O)Oc1cccc(C(=O)O)c1OC(C)=O` [DIPYROCETYL], the residual activity in data set [1] stood at 115.7%; in data set [2], 102.1%.

On to `Cc1c(N(C)CS(=O)(=O)[O-])c(=O)n(-c2ccccc2)n1C.[Na+]` [DIPYRONE SODIUM], for which the results for the residual activity in data set [1] and in data set [2] were 72.95% and 89.51%, respectively.

As for `CC[C@H]1OC(=O)[C@H](C)[C@@H](O[C@H]2C[C@@](C)(OC)[C@@H](O)[C@H](C)O2)[C@H](C)[C@@H](O[C@@H]2O[C@H](C)C[C@H](N(C)C)[C@H]2O)[C@](C)(O)C[C@@H](C)[C@@H]2N[C@@H](COCCOC)O[C@H]([C@H]2C)[C@]1(C)O` [DIRITHROMYCIN], the values for the residual activity in data set [1] and in data set [2] were 109.1% and 95.43%, respectively.

On to `C[C@@H]1CC[C@@]2(OC1)O[C@H]1C[C@H]3[C@@H]4CC=C5C[C@@H](O)CC[C@]5(C)[C@H]4CC[C@]3(C)[C@H]1[C@@H]2C` [DISOGENIN], for which the figures for the residual activity in data set [1] and in data set [2] were 85.54% and 85.35%, respectively.

For the molecule `CCOP(=S)(OCC)SCCSCC` [DISULFOTON], the residual activity is on record as 113.3% in data set [1] and 105.1% in data set [2].

On to `CC(CCc1ccc(O)cc1)NCCc1ccc(O)c(O)c1.Cl` (stereo unspecified) [DOBUTAMINE HYDROCHLORIDE], for which the residual activity in data set [1] amounted to 91.62%; in data set [2], 105.8%.

For the molecule `Cl.NCCc1ccc(O)c(O)c1` [DOPAMINE HYDROCHLORIDE], the results for the residual activity in data set [1] and in data set [2] were 66.46% and 73.49%, respectively.

Regarding `CCN(CC)CCOC(=O)C(c1ccccc1)C1CCCCC1.Cl` (stereo unspecified) [DROFENINE HYDROCHLORIDE], the residual activity was 99.44% in data set [1] and 112.3% in data set [2].
